Publication PMC6886798, “Expression of myeloid Src-family kinases is associated with poor prognosis in AML and influences Flt3-ITD kinase inhibitor acquired resistance” (PLoS ONE, 2019)

Key:
Assay in all cases: KINOMEscan
Format in all cases: binding
Settings in all cases: 1.0 µM
[1] = biological target: T1, SRC (Homo sapiens, UniProt P12931)
T1 construct: purchased Eurofins/DiscoverX KINOMEscan scanMAX
Experimental: (§1) Kinase retention to the immobilized ligand is then measured using quantitative real-time PCR for each kinase-specific DNA barcode.

[2] = biological target: T2, KIT(V559D,V654A) (Homo sapiens, UniProt P10721, V559D/V654A)
T2 construct: purchased Eurofins/DiscoverX KINOMEscan scanMAX
Experimental: as §1

[3] = biological target: T3, RSK1(Kin.Dom.1-N-terminal) (Homo sapiens, UniProt Q15418)
T3 construct: RSK1(Kin.Dom.1-N-terminal); purchased Eurofins/DiscoverX KINOMEscan scanMAX
Experimental: as §1

[4] = biological target: T4, ERK4 (Homo sapiens, UniProt P31152)
T4 construct: purchased Eurofins/DiscoverX KINOMEscan scanMAX
Experimental: as §1

[5] = biological target: T5, MAPKAPK2 (Homo sapiens, UniProt P49137)
T5 construct: purchased Eurofins/DiscoverX KINOMEscan scanMAX
Experimental: as §1

[6] = biological target: T6, PRKG2 (Homo sapiens, UniProt Q13237)
T6 construct: purchased Eurofins/DiscoverX KINOMEscan scanMAX
Experimental: as §1

[7] = biological target: T7, ADCK4 (Homo sapiens, UniProt Q96D53)
T7 construct: purchased Eurofins/DiscoverX KINOMEscan scanMAX
Experimental: as §1

[8] = biological target: T8, PAK2 (Homo sapiens, UniProt Q13177)
T8 construct: purchased Eurofins/DiscoverX KINOMEscan scanMAX
Experimental: as §1

[9] = biological target: T9, RAF1 (Homo sapiens, UniProt P04049)
T9 construct: purchased Eurofins/DiscoverX KINOMEscan scanMAX
Experimental: as §1

[10] = biological target: T10, RSK3(Kin.Dom.2-C-terminal) (Homo sapiens, UniProt Q15349)
T10 construct: RSK3(Kin.Dom.2-C-terminal); purchased Eurofins/DiscoverX KINOMEscan scanMAX
Experimental: as §1

[11] = biological target: T11, CLK3 (Homo sapiens, UniProt P49761)
T11 construct: purchased Eurofins/DiscoverX KINOMEscan scanMAX
Experimental: as §1

[12] = biological target: T12, NEK9 (Homo sapiens, UniProt Q8TD19)
T12 construct: purchased Eurofins/DiscoverX KINOMEscan scanMAX
Experimental: as §1

[13] = biological target: T13, MAP3K15 (Homo sapiens, UniProt Q6ZN16)
T13 construct: purchased Eurofins/DiscoverX KINOMEscan scanMAX
Experimental: as §1

[14] = biological target: T14, ROCK2 (Homo sapiens, UniProt O75116)
T14 construct: purchased Eurofins/DiscoverX KINOMEscan scanMAX
Experimental: as §1

[15] = biological target: T15, EIF2AK1 (Homo sapiens, UniProt Q9BQI3)
T15 construct: purchased Eurofins/DiscoverX KINOMEscan scanMAX
Experimental: as §1

[16] = biological target: T16, TLK1 (Homo sapiens, UniProt Q9UKI8)
T16 construct: purchased Eurofins/DiscoverX KINOMEscan scanMAX
Experimental: as §1

[17] = biological target: T17, PIP5K1A (Homo sapiens, UniProt Q99755)
T17 construct: purchased Eurofins/DiscoverX KINOMEscan scanMAX
Experimental: as §1

[18] = biological target: T18, FES (Homo sapiens, UniProt P07332)
T18 construct: purchased Eurofins/DiscoverX KINOMEscan scanMAX
Experimental: as §1

[19] = biological target: T19, PDGFRA (Homo sapiens, UniProt P16234)
T19 construct: purchased Eurofins/DiscoverX KINOMEscan scanMAX
Experimental: as §1

[20] = biological target: T20, JNK1 (Homo sapiens, UniProt P45983)
T20 construct: purchased Eurofins/DiscoverX KINOMEscan scanMAX
Experimental: as §1

[21] = biological target: T21, TRKB (Homo sapiens, UniProt Q16620)
T21 construct: purchased Eurofins/DiscoverX KINOMEscan scanMAX
Experimental: as §1

[22] = biological target: T22, RSK2(Kin.Dom.1-N-terminal) (Homo sapiens, UniProt P51812)
T22 construct: RSK2(Kin.Dom.1-N-terminal); purchased Eurofins/DiscoverX KINOMEscan scanMAX
Experimental: as §1

[23] = biological target: T23, RIPK5 (Homo sapiens, UniProt Q6XUX3)
T23 construct: purchased Eurofins/DiscoverX KINOMEscan scanMAX
Experimental: as §1

[24] = biological target: T24, ROS1 (Homo sapiens, UniProt P08922)
T24 construct: purchased Eurofins/DiscoverX KINOMEscan scanMAX
Experimental: as §1

[25] = biological target: T25, LRRK2 (Homo sapiens, UniProt Q5S007)
T25 construct: purchased Eurofins/DiscoverX KINOMEscan scanMAX
Experimental: as §1

[26] = biological target: T26, CDKL1 (Homo sapiens, UniProt Q00532)
T26 construct: purchased Eurofins/DiscoverX KINOMEscan scanMAX
Experimental: as §1

[27] = biological target: T27, RIPK2 (Homo sapiens, UniProt O43353)
T27 construct: purchased Eurofins/DiscoverX KINOMEscan scanMAX
Experimental: as §1

[28] = biological target: T28, ERK5 (Homo sapiens, UniProt Q13164)
T28 construct: purchased Eurofins/DiscoverX KINOMEscan scanMAX
Experimental: as §1

[29] = biological target: T29, PRKCQ (Homo sapiens, UniProt Q04759)
T29 construct: purchased Eurofins/DiscoverX KINOMEscan scanMAX
Experimental: as §1

[30] = biological target: T30, EPHB6 (Homo sapiens, UniProt O15197)
T30 construct: purchased Eurofins/DiscoverX KINOMEscan scanMAX
Experimental: as §1

[31] = biological target: T31, FRK (Homo sapiens, UniProt P42685)
T31 construct: purchased Eurofins/DiscoverX KINOMEscan scanMAX
Experimental: as §1

[32] = biological target: T32, MYLK2 (Homo sapiens, UniProt Q9H1R3)
T32 construct: purchased Eurofins/DiscoverX KINOMEscan scanMAX
Experimental: as §1

[33] = biological target: T33, CAMKK2 (Homo sapiens, UniProt Q96RR4)
T33 construct: purchased Eurofins/DiscoverX KINOMEscan scanMAX
Experimental: as §1

[34] = biological target: T34, RET(M918T) (Homo sapiens, UniProt P07949, M918T)
T34 construct: purchased Eurofins/DiscoverX KINOMEscan scanMAX
Experimental: as §1

[35] = biological target: T35, RIOK1 (Homo sapiens, UniProt Q9BRS2)
T35 construct: purchased Eurofins/DiscoverX KINOMEscan scanMAX
Experimental: as §1

[36] = biological target: T36, DMPK2 (Homo sapiens, UniProt Q6DT37)
T36 construct: purchased Eurofins/DiscoverX KINOMEscan scanMAX
Experimental: as §1

[37] = biological target: T37, RPS6KA5(Kin.Dom.1-N-terminal) (Homo sapiens, UniProt O75582)
T37 construct: RPS6KA5(Kin.Dom.1-N-terminal); purchased Eurofins/DiscoverX KINOMEscan scanMAX
Experimental: as §1

[38] = biological target: T38, RPS6KA4(Kin.Dom.2-C-terminal) (Homo sapiens, UniProt O75676)
T38 construct: RPS6KA4(Kin.Dom.2-C-terminal); purchased Eurofins/DiscoverX KINOMEscan scanMAX
Experimental: as §1

[39] = biological target: T39, LZK (Homo sapiens, UniProt O43283)
T39 construct: purchased Eurofins/DiscoverX KINOMEscan scanMAX
Experimental: as §1

[40] = biological target: T40, NDR1 (Homo sapiens, UniProt Q15208)
T40 construct: purchased Eurofins/DiscoverX KINOMEscan scanMAX
Experimental: as §1

T17 sequence (Q99755 whole entry): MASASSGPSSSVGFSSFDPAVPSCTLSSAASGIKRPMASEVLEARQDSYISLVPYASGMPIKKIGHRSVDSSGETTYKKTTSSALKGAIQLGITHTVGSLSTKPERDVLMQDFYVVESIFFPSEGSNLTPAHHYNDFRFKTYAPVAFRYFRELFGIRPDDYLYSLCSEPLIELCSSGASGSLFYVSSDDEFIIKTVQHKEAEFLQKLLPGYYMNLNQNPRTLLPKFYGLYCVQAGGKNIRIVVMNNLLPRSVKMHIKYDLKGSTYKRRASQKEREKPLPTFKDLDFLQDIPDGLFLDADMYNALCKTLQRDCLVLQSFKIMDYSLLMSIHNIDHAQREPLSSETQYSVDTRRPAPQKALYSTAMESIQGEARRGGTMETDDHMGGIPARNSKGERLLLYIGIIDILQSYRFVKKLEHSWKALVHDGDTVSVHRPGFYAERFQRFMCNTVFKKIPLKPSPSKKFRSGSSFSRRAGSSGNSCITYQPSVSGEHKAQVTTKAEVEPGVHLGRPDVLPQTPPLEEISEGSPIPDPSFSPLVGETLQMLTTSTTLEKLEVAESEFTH
T5 sequence (P49137 whole entry): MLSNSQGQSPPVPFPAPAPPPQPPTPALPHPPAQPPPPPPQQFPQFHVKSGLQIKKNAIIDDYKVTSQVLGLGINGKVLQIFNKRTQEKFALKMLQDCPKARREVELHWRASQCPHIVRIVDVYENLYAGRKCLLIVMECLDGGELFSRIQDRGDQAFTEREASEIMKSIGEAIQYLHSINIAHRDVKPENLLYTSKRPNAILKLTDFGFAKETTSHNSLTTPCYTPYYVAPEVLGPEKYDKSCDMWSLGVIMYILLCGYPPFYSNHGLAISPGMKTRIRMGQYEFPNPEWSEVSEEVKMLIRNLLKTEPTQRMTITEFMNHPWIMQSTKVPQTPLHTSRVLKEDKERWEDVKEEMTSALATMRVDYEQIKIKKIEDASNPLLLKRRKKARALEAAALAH
T37 sequence (O75582 49-387 limits assumed): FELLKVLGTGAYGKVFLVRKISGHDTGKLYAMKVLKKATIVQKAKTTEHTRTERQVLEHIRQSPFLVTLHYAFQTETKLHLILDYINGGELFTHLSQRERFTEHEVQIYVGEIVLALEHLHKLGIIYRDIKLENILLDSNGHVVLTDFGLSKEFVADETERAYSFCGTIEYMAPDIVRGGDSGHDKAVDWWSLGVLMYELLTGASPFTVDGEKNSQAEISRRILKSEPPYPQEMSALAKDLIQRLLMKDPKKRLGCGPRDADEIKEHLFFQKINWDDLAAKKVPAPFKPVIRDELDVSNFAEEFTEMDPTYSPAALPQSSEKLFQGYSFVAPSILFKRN
T16 sequence (Q9UKI8 whole entry): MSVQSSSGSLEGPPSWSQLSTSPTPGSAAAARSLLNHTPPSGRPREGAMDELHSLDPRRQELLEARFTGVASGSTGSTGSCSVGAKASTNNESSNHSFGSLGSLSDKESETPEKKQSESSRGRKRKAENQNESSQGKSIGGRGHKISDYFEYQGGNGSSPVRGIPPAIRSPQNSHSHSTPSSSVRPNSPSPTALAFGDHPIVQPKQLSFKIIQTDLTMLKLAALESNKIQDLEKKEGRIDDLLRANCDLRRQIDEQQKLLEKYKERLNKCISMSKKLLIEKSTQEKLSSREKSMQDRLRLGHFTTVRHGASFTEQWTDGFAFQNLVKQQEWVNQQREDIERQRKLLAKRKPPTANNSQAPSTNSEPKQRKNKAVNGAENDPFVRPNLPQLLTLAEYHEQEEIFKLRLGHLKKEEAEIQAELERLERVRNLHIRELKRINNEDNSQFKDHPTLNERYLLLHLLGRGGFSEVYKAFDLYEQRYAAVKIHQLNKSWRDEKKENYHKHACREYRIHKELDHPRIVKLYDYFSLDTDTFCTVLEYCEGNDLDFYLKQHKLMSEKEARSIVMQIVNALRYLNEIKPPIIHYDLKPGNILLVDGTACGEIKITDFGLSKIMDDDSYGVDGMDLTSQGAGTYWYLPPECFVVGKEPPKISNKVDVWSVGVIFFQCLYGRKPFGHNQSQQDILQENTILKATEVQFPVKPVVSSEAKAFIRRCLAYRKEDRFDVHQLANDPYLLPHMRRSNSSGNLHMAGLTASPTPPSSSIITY
T35 sequence (Q9BRS2 whole entry): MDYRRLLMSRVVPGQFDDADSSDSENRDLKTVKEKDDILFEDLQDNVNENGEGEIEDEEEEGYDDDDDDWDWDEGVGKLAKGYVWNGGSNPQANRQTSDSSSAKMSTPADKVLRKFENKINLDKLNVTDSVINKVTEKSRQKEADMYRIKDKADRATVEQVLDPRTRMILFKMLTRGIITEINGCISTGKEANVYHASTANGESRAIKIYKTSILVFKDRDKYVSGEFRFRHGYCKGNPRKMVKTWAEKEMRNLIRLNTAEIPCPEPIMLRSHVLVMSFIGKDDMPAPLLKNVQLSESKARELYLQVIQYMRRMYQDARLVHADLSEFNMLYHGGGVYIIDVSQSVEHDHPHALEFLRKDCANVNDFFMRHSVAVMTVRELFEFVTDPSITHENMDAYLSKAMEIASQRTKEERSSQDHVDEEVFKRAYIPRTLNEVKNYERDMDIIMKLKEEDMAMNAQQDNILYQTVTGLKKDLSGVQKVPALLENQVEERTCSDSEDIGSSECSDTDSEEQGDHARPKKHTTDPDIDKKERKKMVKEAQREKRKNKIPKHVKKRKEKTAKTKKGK
T34 sequence (P07949 29-1114 M918T): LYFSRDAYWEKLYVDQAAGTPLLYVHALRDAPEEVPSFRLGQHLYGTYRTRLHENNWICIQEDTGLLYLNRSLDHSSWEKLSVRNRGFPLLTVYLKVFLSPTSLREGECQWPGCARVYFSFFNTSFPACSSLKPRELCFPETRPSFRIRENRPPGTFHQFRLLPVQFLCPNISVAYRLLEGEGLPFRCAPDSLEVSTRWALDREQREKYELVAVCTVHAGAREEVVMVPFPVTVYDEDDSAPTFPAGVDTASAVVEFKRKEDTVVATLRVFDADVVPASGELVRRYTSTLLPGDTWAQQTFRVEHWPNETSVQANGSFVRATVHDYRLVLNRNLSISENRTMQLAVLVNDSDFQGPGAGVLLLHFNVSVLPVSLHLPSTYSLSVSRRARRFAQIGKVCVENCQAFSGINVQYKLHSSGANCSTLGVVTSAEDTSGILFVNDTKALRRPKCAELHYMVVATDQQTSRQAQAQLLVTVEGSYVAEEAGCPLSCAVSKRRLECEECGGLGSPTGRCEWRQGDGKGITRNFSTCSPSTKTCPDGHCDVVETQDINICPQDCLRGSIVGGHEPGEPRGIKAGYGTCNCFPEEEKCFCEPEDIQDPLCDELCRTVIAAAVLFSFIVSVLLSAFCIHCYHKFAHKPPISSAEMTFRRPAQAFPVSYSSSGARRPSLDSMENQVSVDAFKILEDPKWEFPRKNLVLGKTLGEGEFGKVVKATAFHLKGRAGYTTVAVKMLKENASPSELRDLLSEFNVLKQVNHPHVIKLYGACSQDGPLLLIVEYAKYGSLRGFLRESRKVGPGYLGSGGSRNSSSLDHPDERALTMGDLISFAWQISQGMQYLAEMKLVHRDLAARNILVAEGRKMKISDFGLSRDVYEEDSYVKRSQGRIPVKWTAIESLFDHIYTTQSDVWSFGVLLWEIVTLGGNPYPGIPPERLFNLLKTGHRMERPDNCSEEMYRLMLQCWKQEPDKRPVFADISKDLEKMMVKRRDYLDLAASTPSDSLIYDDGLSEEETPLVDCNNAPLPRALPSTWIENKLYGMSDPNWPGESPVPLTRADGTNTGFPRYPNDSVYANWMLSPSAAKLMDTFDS
T13 sequence (Q6ZN16 whole entry): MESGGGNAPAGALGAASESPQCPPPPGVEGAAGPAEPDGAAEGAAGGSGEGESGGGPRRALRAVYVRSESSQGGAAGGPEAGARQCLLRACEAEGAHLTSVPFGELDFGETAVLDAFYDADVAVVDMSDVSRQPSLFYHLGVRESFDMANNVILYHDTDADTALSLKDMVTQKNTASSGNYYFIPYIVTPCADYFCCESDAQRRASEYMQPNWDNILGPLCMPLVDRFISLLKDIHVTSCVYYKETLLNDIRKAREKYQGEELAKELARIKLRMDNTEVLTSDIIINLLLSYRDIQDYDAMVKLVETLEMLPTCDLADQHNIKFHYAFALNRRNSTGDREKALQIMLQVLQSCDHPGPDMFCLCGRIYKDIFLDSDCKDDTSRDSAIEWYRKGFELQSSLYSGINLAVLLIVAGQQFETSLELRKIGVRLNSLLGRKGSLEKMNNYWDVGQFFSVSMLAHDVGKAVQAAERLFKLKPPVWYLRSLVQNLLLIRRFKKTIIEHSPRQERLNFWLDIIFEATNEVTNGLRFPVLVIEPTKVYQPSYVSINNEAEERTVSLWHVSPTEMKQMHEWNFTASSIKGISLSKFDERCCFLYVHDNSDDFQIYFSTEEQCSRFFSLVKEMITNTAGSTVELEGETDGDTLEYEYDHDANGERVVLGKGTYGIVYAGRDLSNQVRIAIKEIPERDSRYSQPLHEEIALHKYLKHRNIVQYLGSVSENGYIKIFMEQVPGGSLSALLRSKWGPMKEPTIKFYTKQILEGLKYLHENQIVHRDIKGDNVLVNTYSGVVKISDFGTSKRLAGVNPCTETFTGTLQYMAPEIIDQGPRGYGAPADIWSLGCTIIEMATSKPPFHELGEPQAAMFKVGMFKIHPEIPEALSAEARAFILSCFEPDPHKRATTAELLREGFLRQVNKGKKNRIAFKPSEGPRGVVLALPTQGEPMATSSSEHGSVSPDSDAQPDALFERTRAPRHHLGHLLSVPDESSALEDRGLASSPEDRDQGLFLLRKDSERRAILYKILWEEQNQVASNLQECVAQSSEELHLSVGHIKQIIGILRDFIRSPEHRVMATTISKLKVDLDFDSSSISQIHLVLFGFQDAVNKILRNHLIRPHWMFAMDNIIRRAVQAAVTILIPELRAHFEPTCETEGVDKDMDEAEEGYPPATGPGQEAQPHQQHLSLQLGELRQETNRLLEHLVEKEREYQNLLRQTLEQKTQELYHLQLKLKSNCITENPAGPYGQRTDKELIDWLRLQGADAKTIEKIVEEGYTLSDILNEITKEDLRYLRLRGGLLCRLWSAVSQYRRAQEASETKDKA

**Q.** With CN1CCN(C2CCC(n3cc(-c4ccc(Oc5ccccc5)cc4)c4c(N)ncnc43)CC2)CC1 (stereo not shown) [A-419259] as the molecule, how does the “% Control” value [1] read?
**A.** 0.1%

**Q.** And the “% Control” value [2]?
**A.** 18%

**Q.** What about the “% Control” value [3] of the same molecule?
**A.** 8.4%

**Q.** What about the “% Control” value [4] of the same molecule?
**A.** 56%

**Q.** And the “% Control” value [5]?
**A.** 100%

**Q.** And the “% Control” value [6]?
**A.** 100%

**Q.** And the “% Control” value [7]?
**A.** 100%

**Q.** What about the “% Control” value [8] of the same molecule?
**A.** 91%

**Q.** What about the “% Control” value [9] of the same molecule?
**A.** 40%

**Q.** And the “% Control” value [10]?
**A.** 100%

**Q.** And the “% Control” value [11]?
**A.** 100%

**Q.** What about the “% Control” value [12] of the same molecule?
**A.** 90%

**Q.** What about the “% Control” value [13] of the same molecule?
**A.** 79%

**Q.** What about the “% Control” value [14] of the same molecule?
**A.** 62%

**Q.** What about the “% Control” value [15] of the same molecule?
**A.** 99%

**Q.** What about the “% Control” value [16] of the same molecule?
**A.** 93%

**Q.** And the “% Control” value [17]?
**A.** 100%

**Q.** What about the “% Control” value [18] of the same molecule?
**A.** 100%

**Q.** What about the “% Control” value [19] of the same molecule?
**A.** 1.1%

**Q.** What about the “% Control” value [20] of the same molecule?
**A.** 95%

**Q.** And the “% Control” value [21]?
**A.** 29%

**Q.** And the “% Control” value [22]?
**A.** 16%

**Q.** And the “% Control” value [23]?
**A.** 7.1%

**Q.** What about the “% Control” value [24] of the same molecule?
**A.** 100%

**Q.** And the “% Control” value [25]?
**A.** 98%

**Q.** And the “% Control” value [26]?
**A.** 99%

**Q.** What about the “% Control” value [27] of the same molecule?
**A.** 3.6%

**Q.** And the “% Control” value [28]?
**A.** 58%

**Q.** What about the “% Control” value [29] of the same molecule?
**A.** 66%

**Q.** What about the “% Control” value [30] of the same molecule?
**A.** 6.8%

**Q.** What about the “% Control” value [31] of the same molecule?
**A.** 5.3%

**Q.** And the “% Control” value [32]?
**A.** 95%

**Q.** And the “% Control” value [33]?
**A.** 100%

**Q.** What about the “% Control” value [34] of the same molecule?
**A.** 0.1%

**Q.** And the “% Control” value [35]?
**A.** 77%

**Q.** And the “% Control” value [36]?
**A.** 36%

**Q.** What about the “% Control” value [37] of the same molecule?
**A.** 77%

**Q.** And the “% Control” value [38]?
**A.** 99%

**Q.** And the “% Control” value [39]?
**A.** 85%

**Q.** What about the “% Control” value [40] of the same molecule?
**A.** 68%
